In US20240083900A1, “PYRAZOLO[1,5-A]PYRAZINE DERIVATIVES AS BTK INHIBITORS” (BIOGEN MA INC., priority 2020, published 2024):
Like-named read-outs stand apart in the source and are kept apart here.

How the values were obtained:
[1] = biological target: BTK (Homo sapiens (Human), UniProt Q06187); assay: In Vitro BTK Kinase Assay: Btk-PolyGAT-LS Assay; assay type: biochemical; settings: BTK enzyme 0.25 nM, ATP 10 μM, polyGAT 100 nM, 30 minutes incubation, TRF readout; read-out: IC50
In short: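 Human BTK activity was measured with final 10 μM ATP and 100 nM polyGAT substrate in pH 7.5 Tris buffer with 10 mM MgCl2, DTT, Triton X-100 and casein.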

[2] = system: CD69 expression on CD19+ B cells in human whole blood stimulated with anti-human IgD; assay: In Vitro whole blood CD69 Assay; assay type: cell-based; settings: human heparinized whole blood, anti-human IgD stimulation overnight, percentage of CD19+ B cells expressing CD69, flow cytometry, read-out: IC50

Sequence of BTK (Q06187 whole entry): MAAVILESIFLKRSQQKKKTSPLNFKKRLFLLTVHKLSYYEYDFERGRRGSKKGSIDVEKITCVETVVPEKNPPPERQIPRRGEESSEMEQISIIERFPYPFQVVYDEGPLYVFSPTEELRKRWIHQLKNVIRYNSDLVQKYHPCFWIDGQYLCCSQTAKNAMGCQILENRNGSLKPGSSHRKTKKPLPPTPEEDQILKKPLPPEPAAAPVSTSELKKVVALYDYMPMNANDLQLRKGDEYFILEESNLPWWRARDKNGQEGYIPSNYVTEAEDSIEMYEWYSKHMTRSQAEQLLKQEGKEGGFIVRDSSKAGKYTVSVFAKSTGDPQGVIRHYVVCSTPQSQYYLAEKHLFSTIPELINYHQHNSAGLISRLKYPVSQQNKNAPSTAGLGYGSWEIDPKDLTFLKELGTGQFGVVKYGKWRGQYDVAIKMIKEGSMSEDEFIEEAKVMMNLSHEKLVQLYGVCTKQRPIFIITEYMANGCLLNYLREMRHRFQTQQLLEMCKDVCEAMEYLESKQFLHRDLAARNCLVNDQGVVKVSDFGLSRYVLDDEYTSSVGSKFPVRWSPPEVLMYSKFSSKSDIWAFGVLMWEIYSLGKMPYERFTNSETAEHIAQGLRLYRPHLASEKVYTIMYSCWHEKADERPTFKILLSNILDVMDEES

Compound	IC50 [1] [nM]	IC50 ([2]; listed as 26 E1) [µM]	IC50 ([2]; Homo sapiens, B-cell) [µM]
C#CC(=O)NCC1CCCCN1c1nc(-c2cnn(C)c2)cn2nccc12 (single isomer, unassigned) [Example 26 E1, N-[[1-[6-(1-methylpyrazol-4-yl)pyrazolo[1,5-a]pyrazin-4-yl]-2-piperidyl]methyl]prop-2-ynamide]	10 to 1000	> 10	
C=CC(=O)N1CCC[C@@H](Oc2nc(-c3cnn(C)c3)cn3nc(N)cc23)CC1 [Example 67, 1-[(4R)-4-[2-amino-6-(1-methylpyrazol-4-yl)pyrazolo[1,5-a]pyrazin-4-yl]oxyazepan-1-yl]prop-2-en-1-one]	< 1		< 1
C=CC(=O)N1CCC(C)(COc2nc(-c3cnn(C)c3)cn3nccc23)CC1 [Example 189, 1-(4-methyl-4-(((6-(1-methyl-1H-pyrazol-4-yl)pyrazolo[1,5-a]pyrazin-4-yl)oxy)methyl)piperidin-1-yl)prop-2-en-1-one]	1 to 10		1 to 10
CC#CC(=O)N(C)[C@H]1CC[C@@H]2C[C@]2(Oc2nc(-c3cnn(C)c3)cn3nccc23)C1 (single isomer, unassigned) [Example 113]	1 to 10		1 to 10
